{"source": "paper PMC6309603", "about": "(Molecular diversity, 2018)", "key": {"[1]": {"target": "BChE (Homo sapiens, UniProt P06276)", "sequence (P06276 29-602)": "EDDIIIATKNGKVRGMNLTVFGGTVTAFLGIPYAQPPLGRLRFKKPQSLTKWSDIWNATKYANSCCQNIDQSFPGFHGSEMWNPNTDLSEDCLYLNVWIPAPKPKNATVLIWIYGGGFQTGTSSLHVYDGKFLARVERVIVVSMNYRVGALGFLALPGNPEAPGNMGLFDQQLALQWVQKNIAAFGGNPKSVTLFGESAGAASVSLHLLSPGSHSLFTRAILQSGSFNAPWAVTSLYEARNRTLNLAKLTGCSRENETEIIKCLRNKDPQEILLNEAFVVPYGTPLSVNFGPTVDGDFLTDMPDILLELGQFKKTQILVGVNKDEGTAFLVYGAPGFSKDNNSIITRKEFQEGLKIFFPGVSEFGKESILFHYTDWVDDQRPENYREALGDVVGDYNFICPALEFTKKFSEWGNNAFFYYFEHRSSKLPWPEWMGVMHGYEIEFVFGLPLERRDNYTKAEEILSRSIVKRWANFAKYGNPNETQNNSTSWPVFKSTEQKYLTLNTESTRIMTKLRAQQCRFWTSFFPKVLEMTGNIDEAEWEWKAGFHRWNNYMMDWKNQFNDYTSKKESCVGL", "test": "biochemical"}, "[2]": {"target": "T1, AChE (Homo sapiens, UniProt P22303)", "T1 sequence (P22303 32-614)": "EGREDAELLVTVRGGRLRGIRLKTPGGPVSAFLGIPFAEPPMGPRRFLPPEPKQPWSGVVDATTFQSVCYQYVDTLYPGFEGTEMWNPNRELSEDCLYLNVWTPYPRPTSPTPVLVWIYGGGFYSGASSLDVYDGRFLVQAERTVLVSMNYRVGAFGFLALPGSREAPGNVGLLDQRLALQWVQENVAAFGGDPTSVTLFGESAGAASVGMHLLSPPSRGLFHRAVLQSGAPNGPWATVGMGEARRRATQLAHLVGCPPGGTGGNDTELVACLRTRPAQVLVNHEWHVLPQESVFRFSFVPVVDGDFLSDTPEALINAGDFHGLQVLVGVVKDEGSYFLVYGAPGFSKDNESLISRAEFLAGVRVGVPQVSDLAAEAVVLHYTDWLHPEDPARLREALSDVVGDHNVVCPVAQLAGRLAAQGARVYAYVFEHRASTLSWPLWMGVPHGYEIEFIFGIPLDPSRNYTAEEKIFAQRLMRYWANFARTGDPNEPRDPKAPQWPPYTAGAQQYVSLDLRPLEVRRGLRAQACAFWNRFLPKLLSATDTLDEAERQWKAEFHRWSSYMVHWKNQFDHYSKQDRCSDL", "test": "biochemical", "conditions": "for Selectivity for AChE: IC50 (BChE)/IC50 (AChE)"}, "[3]": {"target": "T1, AChE", "test": "Kinetic study of AChE inhibition", "assay_type": "biochemical"}}, "note": "Where two headings read alike, the source gives them in different places.", "data": [{"smiles": "O=C(/C=C/c1cccc(OCCN2CCCC2)c1)c1cc2ccccc2oc1=O", "note": "[Compound 6e, (E)-3-(3-(3-(2-(pyrrolidin-1-yl)ethoxy)phenyl)acryloyl)-2H-chromen-2-one]", "values": [{"measurement": "IC50", "setting": "[1]", "value": "4.62 ± 0.16", "unit": "µM"}, {"measurement": "IC50", "setting": "[2]", "value": "3.25 ± 0.14", "unit": "µM"}, {"measurement": "inhibitory activity against AChE (in words)", "setting": "[2]", "value": "moderate inhibitory activity"}, {"measurement": "selectivity over BChE (in words)", "setting": "[2]", "value": "low selectivity"}, {"measurement": "Selectivity for AChE", "setting": "[2]", "value": 1.42}]}, {"smiles": "CN(C)C(=O)COc1cccc(/C=C/C(=O)c2cc3ccccc3oc2=O)c1", "note": "[Compound 10d, (E)-N,N-dimethyl-2-(3-(3-oxo-3-(2-oxo-2H-chromen-3-yl)prop-1-en-1-yl)phenoxy)acetamide]", "values": [{"measurement": "IC50", "setting": "[1]", "value": "44 ± 2.37", "unit": "µM"}, {"measurement": "IC50", "setting": "[2]", "value": "> 500", "unit": "µM"}, {"measurement": "Selectivity for AChE", "setting": "[2]", "value": "<0.09"}]}, {"smiles": "COc1cc(/C=C/C(=O)c2cc3ccccc3oc2=O)cc(OC)c1OCCN1CCCCC1", "note": "[Compound 13m, (E)-3-(3-(3,5-dimethoxy-4-(2-(piperidin-1-yl)ethoxy)phenyl)acryloyl)-2H-chromen-2-one]", "values": [{"measurement": "IC50", "setting": "[1]", "value": "6.41 ± 0.36", "unit": "µM"}, {"measurement": "IC50", "setting": "[2]", "value": "9.58 ± 0.8", "unit": "µM"}, {"measurement": "Selectivity for AChE", "setting": "[2]", "value": 0.67}]}, {"smiles": "CN(C)C(=O)COc1ccc(/C=C/C(=O)c2cc3ccccc3oc2=O)cc1", "note": "[Compound 9d, (E)-N,N-dimethyl-2-(4-(3-oxo-3-(2-oxo-2H-chromen-3-yl)prop-1-en-1-yl)phenoxy)acetamide]", "values": [{"measurement": "IC50", "setting": "[1]", "value": "> 500", "unit": "µM"}, {"measurement": "IC50", "setting": "[2]", "value": "18.6 ± 1.06", "unit": "µM"}, {"measurement": "Selectivity for AChE", "setting": "[2]", "value": ">26.86"}]}, {"smiles": "O=C(/C=C/c1ccc(OCC(=O)N2CCCCC2)cc1)c1cc2ccccc2oc1=O", "note": "[Compound 9f, (E)-3-(3-(4-(2-oxo-2-(piperidin-1-yl)ethoxy)phenyl)acryloyl)-2H-chromen-2-one]", "values": [{"measurement": "IC50", "setting": "[1]", "value": "> 500", "unit": "µM"}, {"measurement": "IC50", "setting": "[2]", "value": "> 500", "unit": "µM"}]}, {"smiles": "CN(C)CCOc1ccccc1/C=C/C(=O)c1cc2ccccc2oc1=O", "note": "[Compound 7d, (E)-3-(3-(2-(2-(dimethylamino)ethoxy)phenyl)acryloyl)-2H-chromen-2-one]", "values": [{"measurement": "IC50", "setting": "[1]", "value": "15.2 ± 0.6", "unit": "µM"}, {"measurement": "IC50", "setting": "[2]", "value": "16.4 ± 0.22", "unit": "µM"}, {"measurement": "Selectivity for AChE", "setting": "[2]", "value": 0.92}]}, {"smiles": "O=C(/C=C/c1ccc(OCCN2CCOCC2)cc1)c1cc2ccccc2oc1=O", "note": "[Compound 5h, (E)-3-(3-(4-(2-morpholinoethoxy)phenyl)acryloyl)-2H-chromen-2-one]", "values": [{"measurement": "IC50", "setting": "[1]", "value": "> 500", "unit": "µM"}, {"measurement": "inhibitory activity against BChE (in words)", "setting": "[1]", "value": "almost has no inhibitory activity"}, {"measurement": "IC50", "setting": "[1]; read-out: IC50 BChE, means±SD of three assays, 30 min, 30 °C, pH 8.0", "value": "> 500", "unit": "µM"}, {"measurement": "IC50", "setting": "[2]", "value": "> 500", "unit": "µM"}, {"measurement": "inhibitory activity against AChE (in words)", "setting": "[2]", "value": "almost has no inhibitory activity"}, {"measurement": "IC50", "setting": "[2]; read-out: IC50 AChE, means±SD of three assays, 30 min, 30 °C, pH 8.0", "value": "> 500", "unit": "µM"}]}, {"smiles": "O=C(/C=C/c1cccc(OCCN2CCOCC2)c1)c1cc2ccccc2oc1=O", "note": "[Compound 6h, (E)-3-(3-(3-(2-morpholinoethoxy)phenyl)acryloyl)-2H-chromen-2-one]", "values": [{"measurement": "IC50", "setting": "[1]", "value": "> 500", "unit": "µM"}, {"measurement": "IC50", "setting": "[2]", "value": "> 500", "unit": "µM"}]}, {"smiles": "O=C(/C=C/c1ccc(OCCN2CCCC2)cc1)c1cc2ccccc2oc1=O", "note": "[Compound 5e, (E)-3-(3-(4-(2-(pyrrolidin-1-yl)ethoxy)phenyl)acryloyl)-2H-chromen-2-one]", "values": [{"measurement": "IC50", "setting": "[1]", "value": "4.11 ± 0.16", "unit": "µM"}, {"measurement": "IC50", "setting": "[2]", "value": "0.15 ± 0.01", "unit": "µM"}, {"measurement": "inhibitory activity against AChE (in words)", "setting": "[2]", "value": "potent inhibitory activity"}, {"measurement": "selectivity over BChE (in words)", "setting": "[2]", "value": "high selectivity"}, {"measurement": "Selectivity for AChE", "setting": "[2]", "value": 27.40}, {"measurement": "Ki", "setting": "[3]", "value": 0.11, "unit": "µM"}, {"measurement": "non-competitive constant (Ki′)", "setting": "[3]; AChE, substrate acetylthiocholine iodide, pH 7.4, 30 °C", "value": 0.19, "unit": "µM"}, {"measurement": "inhibition mechanism against AChE", "setting": "[3]; Lineweaver-Burk analysis", "value": "mixed-type inhibition"}]}, {"smiles": "O=C(/C=C/c1cccc(OCCN2CCCCC2)c1)c1cc2ccccc2oc1=O", "note": "[Compound 6f, (E)-3-(3-(3-(2-(piperidin-1-yl)ethoxy)phenyl)acryloyl)-2H-chromen-2-one]", "values": [{"measurement": "IC50", "setting": "[1]", "value": "4.01 ± 0.14", "unit": "µM"}, {"measurement": "IC50", "setting": "[2]", "value": "0.61 ± 0.02", "unit": "µM"}, {"measurement": "Selectivity for AChE", "setting": "[2]", "value": 6.61}]}, {"smiles": "CC(C)CCOc1cccc(/C=C/C(=O)c2cc3ccccc3oc2=O)c1", "note": "[Compound 6i, (E)-3-(3-(3-(isopentyloxy)phenyl)acryloyl)-2H-chromen-2-one]", "values": [{"measurement": "IC50", "setting": "[1]", "value": "> 500", "unit": "µM"}, {"measurement": "IC50", "setting": "[2]", "value": "> 500", "unit": "µM"}]}, {"smiles": "COc1cc(/C=C/C(=O)c2cc3ccccc3oc2=O)ccc1OCCN1CCCCC1", "note": "[Compound 12m, (E)-3-(3-(3-methoxy-4-(2-(piperidin-1-yl)ethoxy)phenyl)acryloyl)-2H-chromen-2-one]", "values": [{"measurement": "IC50", "setting": "[1]", "value": "0.52 ± 0.01", "unit": "µM"}, {"measurement": "IC50", "setting": "[2]", "value": "0.37 ± 0.02", "unit": "µM"}, {"measurement": "Selectivity for AChE", "setting": "[2]", "value": 1.41}]}, {"smiles": "COc1cc(/C=C/C(=O)c2cc3ccccc3oc2=O)cc(OC)c1OCCN1CCCC1", "note": "[Compound 13l, (E)-3-(3-(3,5-dimethoxy-4-(2-(pyrrolidin-1-yl)ethoxy)phenyl)acryloyl)-2H-chromen-2-one]", "values": [{"measurement": "IC50", "setting": "[1]", "value": "13.6 ± 0.53", "unit": "µM"}, {"measurement": "IC50", "setting": "[2]", "value": "29 ± 1.68", "unit": "µM"}, {"measurement": "Selectivity for AChE", "setting": "[2]", "value": 0.47}]}, {"smiles": "O=C(/C=C/c1ccccc1OCC(=O)N1CCCC1)c1cc2ccccc2oc1=O", "note": "[Compound 11e, (E)-3-(3-(2-(2-oxo-2-(pyrrolidin-1-yl)ethoxy)phenyl)acryloyl)-2H-chromen-2-one]", "values": [{"measurement": "IC50", "setting": "[1]", "value": "> 500", "unit": "µM"}, {"measurement": "IC50", "setting": "[2]", "value": "> 500", "unit": "µM"}]}, {"smiles": "CCN(CC)CCOc1ccc(/C=C/C(=O)c2cc3ccccc3oc2=O)cc1", "note": "[Compound 5g, (E)-3-(3-(4-(2-(diethylamino)ethoxy)phenyl)acryloyl)-2H-chromen-2-one]", "values": [{"measurement": "IC50", "setting": "[1]", "value": "6.21 ± 0.19", "unit": "µM"}, {"measurement": "IC50", "setting": "[2]", "value": "4.34 ± 0.29", "unit": "µM"}, {"measurement": "Selectivity for AChE", "setting": "[2]", "value": 1.43}]}, {"smiles": "O=C(/C=C/c1ccccc1OCC(=O)N1CCCCC1)c1cc2ccccc2oc1=O", "note": "[Compound 11f, (E)-3-(3-(2-(2-oxo-2-(piperidin-1-yl)ethoxy)phenyl)acryloyl)-2H-chromen-2-one]", "values": [{"measurement": "IC50", "setting": "[1]", "value": "106 ± 3.09", "unit": "µM"}, {"measurement": "IC50", "setting": "[2]", "value": "> 500", "unit": "µM"}]}, {"smiles": "O=C(/C=C/c1cccc(OCC(=O)N2CCCC2)c1)c1cc2ccccc2oc1=O", "note": "[Compound 10e, (E)-3-(3-(3-(2-oxo-2-(pyrrolidin-1-yl)ethoxy)phenyl)acryloyl)-2H-chromen-2-one]", "values": [{"measurement": "IC50", "setting": "[1]", "value": "> 500", "unit": "µM"}, {"measurement": "IC50", "setting": "[2]", "value": "> 500", "unit": "µM"}]}, {"smiles": "CC(C)CCOc1ccccc1/C=C/C(=O)c1cc2ccccc2oc1=O", "note": "[Compound 7i, (E)-3-(3-(2-(isopentyloxy)phenyl)acryloyl)-2H-chromen-2-one]", "values": [{"measurement": "IC50", "setting": "[1]", "value": "> 500", "unit": "µM"}, {"measurement": "IC50", "setting": "[2]", "value": "> 500", "unit": "µM"}]}, {"smiles": "COc1cc(/C=C/C(=O)c2cc3ccccc3oc2=O)ccc1OCCN(C)C", "note": "[Compound 12k, (E)-3-(3-(4-(2-(dimethylamino)ethoxy)-3-methoxyphenyl)acryloyl)-2H-chromen-2-one]", "values": [{"measurement": "IC50", "setting": "[1]", "value": "8.48 ± 0.29", "unit": "µM"}, {"measurement": "IC50", "setting": "[2]", "value": "1.65 ± 0.09", "unit": "µM"}, {"measurement": "Selectivity for AChE", "setting": "[2]", "value": 5.15}]}, {"smiles": "O=C(/C=C/c1ccc(OCCN2CCCCC2)cc1)c1cc2ccccc2oc1=O", "note": "[Compound 5f, (E)-3-(3-(4-(2-(piperidin-1-yl)ethoxy)phenyl)acryloyl)-2H-chromen-2-one]", "values": [{"measurement": "IC50", "setting": "[1]", "value": "1.03 ± 0.05", "unit": "µM"}, {"measurement": "IC50", "setting": "[2]", "value": "0.69 ± 0.06", "unit": "µM"}, {"measurement": "Selectivity for AChE", "setting": "[2]", "value": 1.49}]}, {"smiles": "O=C(/C=C/c1ccc(OCC(=O)N2CCCC2)cc1)c1cc2ccccc2oc1=O", "note": "[Compound 9e, (E)-3-(3-(4-(2-oxo-2-(pyrrolidin-1-yl)ethoxy)phenyl)acryloyl)-2H-chromen-2-one]", "values": [{"measurement": "IC50", "setting": "[1]", "value": "> 500", "unit": "µM"}, {"measurement": "IC50", "setting": "[2]", "value": "> 500", "unit": "µM"}]}]}
